These results are taken from US20220257706A1, “EPIDERMAL GROWTH FACTOR RECEPTOR (EGFR) LIGANDS” (NANYANG TECHNOLOGICAL UNIVERSITY, priority 2019, published 2022).

Like-named read-outs stand apart in the source and are kept apart here.

For data set [1], the system named is pepsin, trypsin, pronase, human neutrophil elastase. The data set can be described thus: Proteolytic stability against a panel of proteases. The following applies: disulfide bridges reduced and S-alkylated by iodoacetamide.
Experimental: (§3) Samples were collected at various time points.
(§4) All collected samples from various stability assays were analyzed by RP-HPLC with a linear gradient of mobile phase A (0.05% TFA/H2O) and mobile phase B (0.05% TFA/ACN) on aeris peptide XB-C18 column (Phenomenex, US). The resulting peaks were collected and identified by MALDI-TOF MS. The results were expressed as percentage of initial concentration using the peak area of the HPLC profile.
The test system is the same in data set [2]. Nature of the data set: in vitro.
Experimental: as §3, §4
Data set [3] can be described thus: Heat stability (100° C., RP-HPLC). Format: physicochemical. How it is done:
Samples were collected at various time points (0, 30, 60, and 120 min).

A further data set addresses EGFR (Homo sapiens, UniProt P00533). The data set can be described thus: TR-FRET EGFR ligand binding assay (competitive displacement of biotin-EGF). On the set-up: purchased PerkinElmer. As to the method:
TR-FRET ratio was measured using a microplate reader in dual emission mode (Excitation: 340 nm, emission: 665 nm and 615 nm) (Cytation 1, US). […] (SEQ ID NO:11) or roseltide rT7 with an amino acid sequence of […] (SEQ ID NO:17) were used as negative control.
In general terms: In TR-FRET formats the signal depends on donor and acceptor labels being close together.

The test system of data set [4] is STZ-induced diabetic C57BL/6 mice. Nature of the data set: Full-thickness splinted excisional wound healing in streptozotocin-induced diabetic C57BL/6 mice. As to conditions: 1 nmol/wound topical, five consecutive days. Format: in vivo, mouse. How it is done: (§1) Full-thickness 5-mm splinted excisional wounding of mice was performed. Briefly, mice were anesthetized using an intraperitoneal injection of sodium pentobarbital (50 mg kg^−1). The hair of the back was shaved with an electric clipper followed by a depilatory cream. Using a 5-mm-diameter sterile biopsy punch, symmetrical full-thickness excisional wounds were created. Splints were placed around the wound using adhesive glue and secured with four interrupted sutures. The wounds and splints were covered with Tegaderm (3M, US). At indicated days within the 14 days post-injury course, wound diameters were measured. The size of wound was calculated from the average of two diameter measurements along the x and y axis.
Diabetes was induced into C57BL/6 mice by two intraperitoneal injection (80 mg/kg) of STZ at day 1 and 5. Starting from day 8, blood glucose was monitored regularly for two weeks. […] Blood glucose was also monitored at day 14 post-injury to ensure the mice are diabetic.

The nature of the next data set: physchem. As to conditions: buffer.
In data set [5] the test system is HaCaT cells. Format: cell-based, human. As to conditions: for mitogenic effect compared with bleogen pB1: 1 μM, crystal violet assay; for EGFR dependence of proliferative/mitogenic effect: co-incubation with EGFR neutralizing antibody (clone LA1). How it is done: HaCaT (human keratinocyte), HUVEC-CS (endothelial cells) cells were cultured in Dulbecco's modification of Eagle's medium (DMEM) supplemented with 10% fetal bovine serum and 100 U/mL of penicillin and streptomycin. Normal Human Epidermal Keratinocytes adult purchased from Lifeline® cell technology were cultured in Lifeline® DermaLife K Medium. They were grown in a 5% CO2 humidified incubator at 37° C. HaCaT cells were stably transfected with pGL4.33[luc2P/SRE/Hygro] (Promega) and selected using 250 μg/mL hygromycin. Stable HaCaT cells expressing SRE luciferase reporter were maintained with 250 μg/mL hygromycin.
Cell proliferation was determined using crystal violet staining. […] 3417-Da-peptide aB1 is a CRP isolated from Achyranthes bidentata with the amino acid sequence […] (SEQ ID NO:11). Crystal violet staining was performed as previously described. Briefly, after the incubation period, the wells were fixed with 4% buffered paraformaldehyde for 20 min. The cells were then stained with 0.25% crystal violet in 20% methanol for 15 min. The excess crystal violet stain was rinsed with distilled water for 4-5 times and air-dried. Glacial acetic acid (10%) in Milli-Q water was added to extract the crystal violet stain. The absorbance was then measured at 595 nm using a microplate reader (Tecan Infinite® 200 Pro, Switzerland).

For data set [6], the system named is HaCaT cells. The data set can be described thus: Cell migration scratch assay. Format: cell-based, human. As to conditions: data not shown. As to the method:
Cell migration was monitored using the scratch assay. Briefly, HaCaT cells were seeded into 2 well silicone inserts with a defined gap of 500 μm (ibidi, Germany). […] After incubation for 8 h, the wells were photographed using inverted phase-contrast microscope. Images were analyzed for the percentage of cell-free area using the Wimasis image analysis platform.

The test system of the next data set is HUVEC-CS cells. The data set can be described thus: Endothelial tube formation assay. Format: cell-based. As to conditions: data not shown. As to the method: Endothelial tube formation assay was performed using a μ-slide (ibidi, Germany). Briefly, 10 μL of gel matrix (BD Matrigel™ Basement Membrane Matrix) was casted onto each μ-slide well and left to solidify. […] After incubation for 2 h, the wells were photographed using inverted phase-contrast microscope. Images were analyzed for the numbering of branching points using the Wimasis image analysis platform.

Another data set relates to newborn ICR mice. The data set can be described thus: Newborn mice model for incisor eruption. In kind it is in vivo, mouse. As to conditions: 3 mg/kg subcutaneous, five consecutive days; saline control 153 h. How it is done: ICR mice were obtained from Vital Rital Laboratories (Beijing, China). […] All experiments were approved and performed in accordance with the institutional guidelines of the Experimental Animal Center of the Chinese Academy of Medical Science (Beijing, China). Subcutaneous injections were made for five consecutive days in the nape of the neck of the newborn mice starting from the day of birth (day 0). […] Incisor eruption was recorded daily by visual inspection. Incisor eruption was defined as the time at which a given tooth first pierced the oral epithelium.

A further data set deals with c-fos. Nature of the data set: Gene expression analysis (qPCR) of c-fos in HaCaT cells. Format: cell-based, human. The following applies: 2 h treatment. How it is done:
(§2) Total RNA was extracted from HaCaT and primary human keratinocytes using PureLink™ RNA mini kit (Thermo Fisher Scientific, US). First-strand cDNA was synthesised from 600 ng of total RNA using SuperScript™ II Reverse Transcriptase and Oligo(dT)12-18 (Thermo Fisher Scientific, US) according to the manufacturer's instructions. Quantitative PCR (qPCR) was performed with iTaq Universal SYBR Green Supermix (Bio-Rad, US) on a CFX96 Touch Real-Time PCR Detection System (Bio-Rad, US) for 40 cycles. PCR reaction (20 μL): 3 μL cDNA, 1 μL primer mix (10 μM), 6 μL DEPC-treated water and 10 μL mastermix. […] GAPDH was used as a housekeeping gene for normalization. Fold changes of gene expressions with c-fos and c-Jun were calculated using the 2^−ΔΔCT method.

The test system of another data set is c-Jun. The data set can be described thus: Gene expression analysis (qPCR) of c-Jun in HaCaT cells. In kind it is cell-based, human. As to conditions: 2 h treatment. As to the method: as §2
Another data set concerns C57BL/6 mice. Nature of the data set: Full-thickness splinted excisional wound healing in C57BL/6 mice. The following applies: topical, three consecutive days; bleogen pB1 10 nmol/wound, EGF 1 nmol/wound; vs saline. Format: in vivo, mouse. How it is done:
C57BL/6 mice were obtained from Vital Rital Laboratories (Beijing, China). […] All experiments were approved and performed in accordance with the institutional guidelines of the Experimental Animal Center of the Chinese Academy of Medical Science (Beijing, China).
as §1
Full-thickness 5 mm splinted excisional wounding of mice was performed on C57BL/6 mice as described above.

Sequence of EGFR (P00533 25-645 limits assumed): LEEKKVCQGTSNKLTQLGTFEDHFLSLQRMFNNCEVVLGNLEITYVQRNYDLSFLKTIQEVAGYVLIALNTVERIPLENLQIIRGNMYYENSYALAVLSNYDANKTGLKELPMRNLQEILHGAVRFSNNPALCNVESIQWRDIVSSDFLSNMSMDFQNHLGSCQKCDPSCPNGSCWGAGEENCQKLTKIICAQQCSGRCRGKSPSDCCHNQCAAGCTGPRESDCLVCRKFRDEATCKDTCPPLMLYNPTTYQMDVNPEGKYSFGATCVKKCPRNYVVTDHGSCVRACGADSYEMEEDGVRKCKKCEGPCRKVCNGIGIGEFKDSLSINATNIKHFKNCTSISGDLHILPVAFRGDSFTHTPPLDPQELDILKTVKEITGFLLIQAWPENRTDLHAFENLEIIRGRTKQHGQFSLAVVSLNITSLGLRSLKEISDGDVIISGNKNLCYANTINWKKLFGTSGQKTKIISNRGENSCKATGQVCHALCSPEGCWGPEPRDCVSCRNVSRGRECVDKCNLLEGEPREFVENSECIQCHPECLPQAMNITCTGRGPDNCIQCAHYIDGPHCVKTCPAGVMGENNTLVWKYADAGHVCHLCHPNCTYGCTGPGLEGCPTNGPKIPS
Experimental for physchem: as §3, §4

On to `CC[C@H](C)[C@H](NC(=O)[C@H](CCC(=O)O)NC(=O)[C@@H](NC(=O)[C@H](CSCC(N)=O)NC(=O)[C@H](CCCCN)NC(=O)[C@H](C)NC(=O)CNC(=O)[C@H](CC(N)=O)NC(=O)[C@@H]1CCCN1C(=O)[C@H](CCCCN)NC(=O)[C@H](CSCC(N)=O)NC(=O)[C@@H](N)CCC(N)=O)[C@@H](C)O)C(=O)N[C@@H](CO)C(=O)N[C@H](C(=O)N1CCC[C@H]1C(=O)N1CCC[C@H]1C(=O)N[C@@H](CSCC(N)=O)C(=O)N[C@@H](CSCC(N)=O)C(=O)N[C@@H](CO)C(=O)N[C@@H](CC(N)=O)C(=O)N[C@@H](Cc1ccccc1)C(=O)N[C@@H](CSCC(N)=O)C(=O)N[C@@H](CC(C)C)C(=O)N[C@@H](CCCNC(=N)N)C(=O)N[C@@H](Cc1ccc(O)cc1)C(=O)N[C@@H](C)C(=O)NCC(=O)N[C@@H](CCC(N)=O)C(=O)N[C@@H](CCCCN)C(=O)N[C@@H](CO)C(=O)NCC(=O)N[C@H](C(=O)N[C@@H](CSCC(N)=O)C(=O)N[C@@H](C)C(=O)N[C@@H](CC(N)=O)C(=O)N[C@@H](CCCNC(=N)N)C(=O)O)[C@@H](C)O)[C@@H](C)CC` [S-alkylated bleogen pB1, reference compound], for which the “degradation by proteases (time)” value in data set [1] is recorded as “within a couple of minutes”.
The term half-life denotes how long it takes for the measured level to halve. The low end stands for fast loss, the high end for slow loss. What is called IC50 is the midpoint of a concentration-inhibition curve. With `CC[C@H](C)[C@@H]1NC(=O)[C@H](CCC(=O)O)NC(=O)[C@H]([C@@H](C)O)NC(=O)[C@@H]2CSSC[C@@H]3NC(=O)[C@H](Cc4ccccc4)NC(=O)[C@H](CC(N)=O)NC(=O)[C@H](CO)NC(=O)[C@H](CSSC[C@H](NC(=O)[C@@H](N)CCC(N)=O)C(=O)N[C@@H](CCCCN)C(=O)N4CCC[C@H]4C(=O)N[C@@H](CC(N)=O)C(=O)NCC(=O)N[C@@H](C)C(=O)N[C@@H](CCCCN)C(=O)N2)NC(=O)[C@H](CSSC[C@@H](C(=O)N[C@@H](C)C(=O)N[C@@H](CC(N)=O)C(=O)N[C@@H](CCCNC(=N)N)C(=O)O)NC(=O)[C@H]([C@@H](C)O)NC(=O)CNC(=O)[C@H](CO)NC(=O)[C@@H](CCCCN)NC(=O)[C@H](CCC(N)=O)NC(=O)CNC(=O)[C@H](C)NC(=O)[C@H](Cc2ccc(O)cc2)NC(=O)[C@H](CCCNC(=N)N)NC(=O)[C@H](CC(C)C)NC3=O)NC(=O)[C@@H]2CCCN2C(=O)[C@@H]2CCCN2C(=O)[C@H]([C@@H](C)CC)NC(=O)[C@H](CO)NC1=O` [[K29k]pB1], the half-life at 0.1 M (in data set [2]; in data set [3]; in the data set “physchem”) was greater than 8.33 h in each case. The “EGFR affinity / EGF-like biological activity compared with bleogen pB1 (EGFR displacement)” value is “higher affinity than bleogen pB1” on EGFR and “increased EGF-like biological activities” on EGFR (listed as K29k pB1). Further, the figures for the “potency relative to bleogen pB1 (fold more potent)” value on EGFR and at EGFR (listed as K29k pB1) were “approximately 60 fold” and 60 fold, respectively. On EGFR (TR-FRET, mean±S.D., three independent experiments, read-out: IC50, displacement of biotin-EGF from EGFR), the IC50 turned out to be 27 ± 0.05 nM. The “wound closure compared with EGF and bleogen pB1 in STZ-diabetic mice” value was “at a similar rate as EGF, and much faster than bleogen pB1” in [4]; “comparable” in data set [4] (listed as K29k pB1). Also, the “wound healing rate vs vehicle control in STZ-induced diabetic mice” value in data set [4] is “healed at a significantly faster rate starting from day 4 post-injury”. Also, in the data set on HaCaT cells [5] (72 h), the “mitogenic effect compared with bleogen pB1” value is given as “more mitogenic than bleogen pB1”. In the data set on HaCaT cells [5], the “EGFR dependence of proliferative/mitogenic effect” value is “EGFR-dependent”.
In the case of `N#CC(=C(/N)Sc1ccccc1N)/C(C#N)=C(\N)Sc1ccccc1N` [U0126, reference compound], the “effect of co-incubation on bleogen pB1-induced HaCaT cell proliferation” value in the data set with HaCaT cells [5] is recorded as “substantially inhibited”.
Turning to “EGF: epidermal growth factor, SEQ ID NO:10, positive control”, the HaCaT cell migration result with HaCaT cells [6] is on record as “accelerate”. The “endothelial cell tube formation” value in the data set on HUVEC-CS cells was “accelerate”. In addition, the “time of incisor eruption in newborn mice” value in the data set on newborn ICR mice is recorded as 100 h. The “mRNA expression of c-fos” value with c-fos is recorded as “significantly upregulate”. In addition, the “wound healing rate vs vehicle control in STZ-induced diabetic mice” value in data set [4] is recorded as “healed at a significantly faster rate starting from day 4 post-injury”. In addition, the “mRNA expression of c-Jun” value in the data set with c-Jun was “significantly upregulate”. In the data set with C57BL/6 mice, the “wound healing, full-thickness excision wound model in C57 mice” value is “accelerated wound healing from day 3 to day 11”.
As to `COc1cc2ncnc(Nc3cccc(Cl)c3)c2cc1OC` [AG1478, reference compound], the “effect of co-incubation on bleogen pB1-induced HaCaT cell proliferation” value in the data set with HaCaT cells [5] (serum-free medium, 72 h) was “substantially inhibited”.
For the molecule `CC[C@H](C)[C@@H]1NC(=O)[C@H](CCC(=O)O)NC(=O)[C@H]([C@@H](C)O)NC(=O)[C@@H]2CSSC[C@@H]3NC(=O)[C@H](Cc4ccccc4)NC(=O)[C@H](CC(N)=O)NC(=O)[C@H](CO)NC(=O)[C@H](CSSC[C@H](NC(=O)[C@@H](N)CCC(N)=O)C(=O)N[C@@H](CCCCN)C(=O)N4CCC[C@H]4C(=O)N[C@@H](CC(N)=O)C(=O)NCC(=O)N[C@@H](C)C(=O)N[C@@H](CCCCN)C(=O)N2)NC(=O)[C@H](CSSC[C@@H](C(=O)N[C@@H](C)C(=O)N[C@@H](CC(N)=O)C(=O)N[C@@H](CCCNC(=N)N)C(=O)O)NC(=O)[C@H]([C@@H](C)O)NC(=O)CNC(=O)[C@H](CO)NC(=O)[C@H](CCCCN)NC(=O)[C@H](CCC(N)=O)NC(=O)CNC(=O)[C@H](C)NC(=O)[C@@H](Cc2ccc(O)cc2)NC(=O)[C@H](CCCNC(=N)N)NC(=O)[C@H](CC(C)C)NC3=O)NC(=O)[C@@H]2CCCN2C(=O)[C@@H]2CCCN2C(=O)[C@H]([C@@H](C)CC)NC(=O)[C@H](CO)NC1=O` [[Y25y]pB1], the “EGFR affinity / EGF-like biological activity compared with bleogen pB1 (EGFR displacement)” value on EGFR was “higher affinity than bleogen pB1”; on EGFR (listed as Y25y pB1) it was “increased EGF-like biological activities”. The IC50 at EGFR was determined as 580 ± 0.089 nM. The “mitogenic effect compared with bleogen pB1” value in the data set on HaCaT cells [5] (72 h) was “more mitogenic than bleogen pB1”. For the same molecule, the “EGFR dependence of proliferative/mitogenic effect” value in the data set with HaCaT cells [5] was “EGFR-dependent”.
For the molecule “NCESGTSCIPGAQHNCCSGVCVPIVTIFYGVCY (listed as Achyranthes bidentata) [aB1, reference compound]”, the “HaCaT cell proliferation, concentration up to which not active” value with HaCaT cells [5] (negative control) was greater than 10 µM.
